Measured values taken from ChEMBL document CHEMBL1201862, “PubChem BioAssay data set” (2004).
Activity calls are given as the source filed them.

Key:
[1] = inhibitors of firefly luciferase expression or activity, dose response, H4 neuroglioma cells, luminescence (AID 1990); assay type: functional, cell-based
BJ [2] = experiment: cytotoxicity toward BJ-TERT fibroblasts, dose response, cell-based, RAS-independent, luminescence (AID 1933); assay type: functional; conditions: Homo sapiens
[3] = inhibitors of SNCA 5'UTR-driven reporter translation, confirmation, H4 neuroglioma cells, luminescence (AID 1988); assay type: functional, cell-based
BJ [4] = experiment: cells; assay type: functional, cell-based; conditions: Homo sapiens
[5] = microbe, parasite or virus in culture; assay type: functional; conditions: Mycobacterium tuberculosis
BJ [6] = experiment: cytotoxicity toward BJ-TERT-LT-ST fibroblasts, dose response, cell-based, RAS-independent, luminescence (AID 1935); assay type: functional; conditions: Homo sapiens;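 also: BJ fibroblasts immortalized with TERT plus LT and ST oncogenes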
[7] = cytotoxicity toward DRD oncogenic fibroblasts, dose response, cell-based, non-viral oncogenic, luminescence (AID 1934); assay type: functional; conditions: Homo sapiens
BJ [8] = experiment: cytotoxicity toward Ras-transformed BJeLR fibroblasts, dose response, cell-based, alamar blue fluorescence, cherrypicked samples (AID 2631); assay type: functional; conditions: Homo sapiens;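 also: confirmatory dose-response assay in RAS-dependent BJ fibroblasts engineered with TERT, LT and ST, with cytotoxicity read by fluorescence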
P388/ADR = experiment: cells; assay type: functional; conditions: Mus musculus
SN12K1 = experiment: cells; assay type: functional; conditions: Homo sapiens
P388 = experiment: cells; assay type: functional; conditions: Mus musculus
[9] = HeLa 2N DNA content increase, dose response, cell-based, IC50 (AID 1117349); assay type: functional
[10] = Concentration-dependent survival of SW480 colon cancer line, luminescence detection with CellTiter-Glo, half-maximal inhibitory concentration (AID 1117338); assay type: functional
[11] = RKO cell viability reduction, dose response, CellTiter-Glo luminescence (AID 1117322); assay type: functional
[12] = cytotoxicity toward HCT116 cells – cell-based, CellTiter-Glo luminescence, IC50, dose response (AID 1117332); assay type: functional; conditions: HCT-116
[13] = SNU-C1 cell viability reduction, dose response, CellTiter-Glo luminescence (AID 1117323); assay type: functional, cell-based
[14] = cytotoxicity toward Colo320 cells – cell-based, CellTiter-Glo luminescence, IC50, dose response (AID 1117334); assay type: functional; conditions: COLO 320
[15] = HeLa 4N DNA content increase, dose response, cell-based, IC50 (AID 1117351); assay type: functional
[16] = cytotoxicity toward HT-29 cells – cell-based, CellTiter-Glo luminescence, IC50, dose response (AID 1117330); assay type: functional
[17] = CellTiter-Glo luminescent dose response of DLD-1 viability loss (AID 1117352); assay type: functional
[18] = HCT116 cell viability decrease, GSK3B pretreatment – CellTiter-Glo, IC50, dose response (AID 1117339); assay type: functional; conditions: HCT-116
[19] = Dose-response inhibition of insulin secretion in a rat insulinoma line at 5 mM glucose (AID 1117331); assay type: functional, cell-based; conditions: INS-1E
[20] = target: G-protein coupled receptor 183 (Homo sapiens, UniProt P32249); experiment: SAR confirmation of small molecule antagonists of the EBI2 receptor via a luminescent beta-arrestin assa.; assay type: functional
[21] = A549 cell cytotoxicity, dose response, cytotoxicity control, 24 h, CellTiter-Glo luminescence, cherry-picks (AID 1053115); assay type: functional, cell-based; conditions: A549, 24 h
[22] = A549 cell cytotoxicity, dose response, CellTiter-Glo luminescence, dry powder, set 17 (AID 1117284); assay type: functional, cell-based
[23] = Orthopox viral replication plaque formation Measured in Cell-Based and Microorganism Combination System Using Imaging - 2142-05_Inhibitor_Dose_DryPowder_Activity.; assay type: functional
[24] = Mtb BioA inhibitors by displacement, dose response, biochemical, coupled fluorescence displacement, 20-point, dry powder (AID 743357); assay type: functional
[25] = Luminescence-based cell-based high throughput dose response assay to identify activators of the DAF-12 from the parasite S. stercoralis (ssDAF-12).; assay type: functional
[26] = target: T1, Oxysterols receptor LXR-beta (Homo sapiens, UniProt P55055); experiment: LXR agonists, Gal4 luciferase reporter, dose response, counter-screen for ssDAF-12 agonist project, cell-based, luminescence, HEK293, S. stercoralis campaign (AID 720737); assay type: functional; conditions: read-out: IC50 (the source's name)
T1 sequence (P55055 whole entry): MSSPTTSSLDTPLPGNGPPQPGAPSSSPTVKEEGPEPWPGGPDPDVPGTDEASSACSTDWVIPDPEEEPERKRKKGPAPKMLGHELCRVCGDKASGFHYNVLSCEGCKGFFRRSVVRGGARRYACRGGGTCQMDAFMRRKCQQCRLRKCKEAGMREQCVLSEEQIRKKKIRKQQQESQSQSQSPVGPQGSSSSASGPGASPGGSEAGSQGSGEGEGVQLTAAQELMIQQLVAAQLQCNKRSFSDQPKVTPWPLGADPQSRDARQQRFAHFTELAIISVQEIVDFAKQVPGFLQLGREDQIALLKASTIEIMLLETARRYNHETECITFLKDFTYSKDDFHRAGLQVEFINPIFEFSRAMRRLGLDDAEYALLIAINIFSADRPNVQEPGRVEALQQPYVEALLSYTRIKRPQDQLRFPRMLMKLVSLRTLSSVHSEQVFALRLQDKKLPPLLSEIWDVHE

[27] = target: T1, Oxysterols receptor LXR-beta; assay type: functional, cell-based
cells [28] = experiment: cells
[29] = target: Glucose-6-phosphate 1-dehydrogenase (Homo sapiens, UniProt P11413); experiment: human G6PD enzyme inhibitors, dose response, selectivity assay for P. falciparum G6PD inhibitor project, biochemical, fluorescence (AID 504792); assay type: functional
Vero = Vero cell cytotoxicity, cytotoxicity control for flavivirus capping enzyme inhibitors (AID 588742); assay type: functional; conditions: Chlorocebus sabaeus
Genome polyprotein = Genome polyprotein (dengue virus type 2, UniProt P29990); experiment: Dengue-2 NS5 methyltransferase inhibitors, primary screen, biochemical, confirmation dose response (AID 588689); assay type: functional
[30] = target: T2, Probable nicotinate-nucleotide adenylyltransferase (Staphylococcus aureus (strain N315), UniProt P65502); assay type: functional, Staphylococcus aureus subsp. aureus N315;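 as to IC50 Mean: confirmatory dose-response retesting of NadD inhibitor hits first found in an ultra-high-throughput screen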
[31] = target: T2, Probable nicotinate-nucleotide adenylyltransferase; assay type: functional, Staphylococcus aureus subsp. aureus N315; conditions: read-out: IC50_Mean
Protein Tat = Protein Tat (Human immunodeficiency virus type 1 group M subtype B (isolate HXB2)(HIV-1), UniProt P04608); assay type: functional;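 also: tat binding to TAR RNA read out by fluorescence polarization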
[32] = THP-1 cell cytotoxicity, dose response, cytotoxicity control for Vif-APOBEC3G degradation inhibitor project, THP-1 cells (AID 1117359); assay type: functional; conditions: Human immunodeficiency virus 1, THP-1
[33] = target: RNA-editing ligase 1, mitochondrial (Trypanosoma brucei brucei, UniProt P86926); experiment: TbREL1 ligase inhibitors, dose response, biochemical, fluorescence, Trypanosoma brucei (AID 1117295); assay type: functional
HeLa = experiment: HeLa cell cytotoxicity, dose response, cytotoxicity control for MITF activator project, CellTiter-Glo luminescence, cherry-pick samples (AID 540259); assay type: functional, cell-based; conditions: Homo sapiens
[34] = target: T3, DNA repair and recombination protein RAD54-like (Homo sapiens, UniProt Q92698); experiment: inhibitors of human RAD54 branch migration, confirmation, biochemical, fluorescence, cherry-picked samples, dose series (AID 651657); assay type: functional
T3 sequence (Q92698 whole entry): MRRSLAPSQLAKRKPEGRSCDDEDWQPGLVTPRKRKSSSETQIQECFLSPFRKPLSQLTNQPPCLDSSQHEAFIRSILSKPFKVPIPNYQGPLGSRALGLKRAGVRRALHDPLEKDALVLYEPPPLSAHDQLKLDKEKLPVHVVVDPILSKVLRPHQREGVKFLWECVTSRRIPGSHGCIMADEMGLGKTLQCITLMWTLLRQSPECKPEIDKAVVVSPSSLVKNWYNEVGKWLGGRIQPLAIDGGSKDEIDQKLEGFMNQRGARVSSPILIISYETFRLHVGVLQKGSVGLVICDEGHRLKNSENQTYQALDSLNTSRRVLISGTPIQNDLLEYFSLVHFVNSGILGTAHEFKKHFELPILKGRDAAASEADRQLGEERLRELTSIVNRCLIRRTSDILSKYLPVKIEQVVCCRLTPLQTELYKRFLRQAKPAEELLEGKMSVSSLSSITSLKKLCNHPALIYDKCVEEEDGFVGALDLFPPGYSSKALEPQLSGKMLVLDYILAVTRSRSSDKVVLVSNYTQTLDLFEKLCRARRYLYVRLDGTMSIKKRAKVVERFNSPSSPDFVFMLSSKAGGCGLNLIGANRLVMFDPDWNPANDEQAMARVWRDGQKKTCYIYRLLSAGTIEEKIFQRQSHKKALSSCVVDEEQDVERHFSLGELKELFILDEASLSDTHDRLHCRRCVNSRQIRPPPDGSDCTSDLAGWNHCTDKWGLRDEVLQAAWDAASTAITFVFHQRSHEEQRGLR

[35] = HepG2 cell cytotoxicity, dose response, cytotoxicity control, ATP luminescence, cherry-pick, set 6 (AID 1053125); assay type: functional, cell-based
[36] = target: E3 ubiquitin-protein ligase UHRF1 (Homo sapiens, UniProt Q96T88); experiment: Counterscreen for inhibitors of 5-meCpG-binding domain protein 2 (MBD2): TRFRET-based biochemical high throughput dose response assay to identify inhibitors of binding of ubiquitin-like with PHD and ring finger domains 1 (UHRF1) to methylated oligonucleotide.
cells [37] = conditions: A549
cells [38] = conditions: HEK293

T2 sequence (P65502 whole entry): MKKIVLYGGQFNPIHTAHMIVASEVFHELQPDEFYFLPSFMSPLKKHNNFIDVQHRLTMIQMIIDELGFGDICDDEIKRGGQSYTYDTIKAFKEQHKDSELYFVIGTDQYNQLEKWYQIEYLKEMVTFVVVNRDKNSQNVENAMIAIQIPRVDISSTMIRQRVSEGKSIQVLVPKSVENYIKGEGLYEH
Chain of E3 ubiquitin-protein ligase UHRF1 (Q96T88 whole entry, the tested form may be a part): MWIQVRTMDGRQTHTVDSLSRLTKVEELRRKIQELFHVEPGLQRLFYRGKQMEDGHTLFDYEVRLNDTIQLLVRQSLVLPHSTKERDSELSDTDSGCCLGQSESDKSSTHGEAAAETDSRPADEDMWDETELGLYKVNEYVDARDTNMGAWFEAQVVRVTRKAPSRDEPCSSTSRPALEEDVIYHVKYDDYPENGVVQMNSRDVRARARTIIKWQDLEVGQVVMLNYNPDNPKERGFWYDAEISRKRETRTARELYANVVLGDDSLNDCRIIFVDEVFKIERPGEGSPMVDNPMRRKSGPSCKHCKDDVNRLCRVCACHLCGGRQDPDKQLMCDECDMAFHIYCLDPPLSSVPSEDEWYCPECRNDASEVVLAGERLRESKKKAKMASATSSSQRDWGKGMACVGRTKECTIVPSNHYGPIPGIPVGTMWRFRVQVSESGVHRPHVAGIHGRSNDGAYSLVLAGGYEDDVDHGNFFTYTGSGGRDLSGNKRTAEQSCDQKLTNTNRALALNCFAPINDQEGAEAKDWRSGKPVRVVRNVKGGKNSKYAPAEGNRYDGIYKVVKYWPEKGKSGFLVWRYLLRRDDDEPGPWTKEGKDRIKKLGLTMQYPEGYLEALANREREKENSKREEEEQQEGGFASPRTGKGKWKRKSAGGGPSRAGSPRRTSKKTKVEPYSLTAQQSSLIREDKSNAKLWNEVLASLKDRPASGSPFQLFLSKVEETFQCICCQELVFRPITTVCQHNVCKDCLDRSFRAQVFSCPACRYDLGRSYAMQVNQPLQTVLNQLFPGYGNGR
Chain of Protein Tat (P04608 whole entry): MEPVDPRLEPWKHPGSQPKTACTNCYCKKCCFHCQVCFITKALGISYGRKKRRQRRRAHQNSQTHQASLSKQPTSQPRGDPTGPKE
Chain of Genome polyprotein (P29990 2492-3391 limits assumed): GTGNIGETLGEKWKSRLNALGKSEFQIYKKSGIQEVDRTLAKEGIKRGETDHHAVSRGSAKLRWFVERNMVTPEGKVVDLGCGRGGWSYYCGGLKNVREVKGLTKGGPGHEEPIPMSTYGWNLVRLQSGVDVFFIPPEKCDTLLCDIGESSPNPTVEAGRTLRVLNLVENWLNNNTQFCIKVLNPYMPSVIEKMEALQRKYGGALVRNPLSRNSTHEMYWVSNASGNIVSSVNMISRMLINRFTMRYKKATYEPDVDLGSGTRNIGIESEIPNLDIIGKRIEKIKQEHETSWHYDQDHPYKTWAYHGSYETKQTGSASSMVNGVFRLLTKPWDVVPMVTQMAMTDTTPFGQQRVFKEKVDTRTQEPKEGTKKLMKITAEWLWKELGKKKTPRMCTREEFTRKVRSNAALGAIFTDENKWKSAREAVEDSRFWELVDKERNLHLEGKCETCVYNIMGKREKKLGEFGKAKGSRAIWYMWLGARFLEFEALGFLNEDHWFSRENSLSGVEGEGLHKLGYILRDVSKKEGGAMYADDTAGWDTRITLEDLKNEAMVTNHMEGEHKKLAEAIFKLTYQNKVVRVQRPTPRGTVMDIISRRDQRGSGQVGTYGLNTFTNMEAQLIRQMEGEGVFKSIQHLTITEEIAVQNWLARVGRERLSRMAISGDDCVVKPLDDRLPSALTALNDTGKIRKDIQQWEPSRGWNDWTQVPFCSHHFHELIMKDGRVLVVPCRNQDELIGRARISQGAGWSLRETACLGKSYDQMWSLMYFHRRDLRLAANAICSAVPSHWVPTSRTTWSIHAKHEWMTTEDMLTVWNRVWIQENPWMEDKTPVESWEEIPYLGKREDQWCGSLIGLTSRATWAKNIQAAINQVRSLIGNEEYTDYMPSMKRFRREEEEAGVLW
Chain of RNA-editing ligase 1, mitochondrial (P86926 whole entry): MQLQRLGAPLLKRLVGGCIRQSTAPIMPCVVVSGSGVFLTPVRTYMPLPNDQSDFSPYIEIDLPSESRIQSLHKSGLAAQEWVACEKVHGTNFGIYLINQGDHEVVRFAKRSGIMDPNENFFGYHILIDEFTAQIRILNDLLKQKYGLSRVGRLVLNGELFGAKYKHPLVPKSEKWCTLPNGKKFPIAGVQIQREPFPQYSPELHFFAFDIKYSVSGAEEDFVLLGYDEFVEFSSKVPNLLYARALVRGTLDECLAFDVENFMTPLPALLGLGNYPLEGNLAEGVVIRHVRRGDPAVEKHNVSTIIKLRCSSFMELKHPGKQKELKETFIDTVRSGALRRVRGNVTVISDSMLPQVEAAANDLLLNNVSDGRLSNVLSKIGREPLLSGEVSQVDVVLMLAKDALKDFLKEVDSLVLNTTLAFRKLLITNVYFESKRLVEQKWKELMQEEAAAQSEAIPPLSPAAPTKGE
Chain of G-protein coupled receptor 183 (P32249 whole entry): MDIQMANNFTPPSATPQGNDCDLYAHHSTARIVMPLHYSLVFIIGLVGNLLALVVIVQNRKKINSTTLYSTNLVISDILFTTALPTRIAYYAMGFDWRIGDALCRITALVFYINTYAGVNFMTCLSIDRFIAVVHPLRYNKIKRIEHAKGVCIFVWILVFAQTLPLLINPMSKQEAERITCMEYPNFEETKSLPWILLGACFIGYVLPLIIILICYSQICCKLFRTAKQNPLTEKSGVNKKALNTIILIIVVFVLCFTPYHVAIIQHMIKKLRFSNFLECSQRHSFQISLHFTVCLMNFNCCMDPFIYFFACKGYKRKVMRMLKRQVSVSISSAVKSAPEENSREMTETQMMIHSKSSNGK
Chain of Glucose-6-phosphate 1-dehydrogenase (P11413 whole entry): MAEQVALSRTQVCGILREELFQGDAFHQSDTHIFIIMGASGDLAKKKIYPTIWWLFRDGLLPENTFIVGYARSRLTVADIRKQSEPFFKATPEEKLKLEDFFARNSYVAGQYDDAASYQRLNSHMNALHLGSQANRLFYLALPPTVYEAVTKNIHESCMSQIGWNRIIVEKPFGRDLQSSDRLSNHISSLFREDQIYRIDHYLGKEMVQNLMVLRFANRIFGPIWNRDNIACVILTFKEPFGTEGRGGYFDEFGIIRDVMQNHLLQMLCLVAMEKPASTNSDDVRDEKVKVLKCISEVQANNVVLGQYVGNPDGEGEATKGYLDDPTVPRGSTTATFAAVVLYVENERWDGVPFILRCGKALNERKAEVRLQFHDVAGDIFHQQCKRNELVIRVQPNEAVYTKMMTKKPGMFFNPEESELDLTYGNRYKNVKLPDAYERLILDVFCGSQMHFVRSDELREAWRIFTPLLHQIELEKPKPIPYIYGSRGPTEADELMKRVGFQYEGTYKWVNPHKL

## Sc1ncnc2nc[nH]c12 [MERCAPTOPURINE ANHYDROUS]
[1]
  EC50: 13 µM (active)
BJ [2]
  EC50: > 150 µM (not active)
[3]
  EC50: 11.6 µM (active)
BJ [4]
  EC50: 4.33 µM (inconclusive)
[5]
  CC50: > 40 µM (active)
BJ [6]
  EC50: > 150 µM (not active)
[7]
  EC50: 5.35 µM (active)
BJ [8]
  EC50: > 133 µM (inactive)
P388/ADR
  GI50: 19.5 µM (inactive)
SN12K1
  GI50: 1.29 µM (inactive)
P388
  GI50: 8.89 µM (inactive)
[9]
  IC50: > 10 µM (inactive)
[10]
  IC50: 1.04 µM (active)
[11]
  IC50: 0.659 µM (active)
[12]
  IC50: 0.259 µM (active)
[13]
  IC50: > 20 µM (inactive)
[14]
  IC50: 1.3 µM (active)
[15]
  IC50: > 10 µM (inactive)
[16]
  IC50: 0.635 µM (active)
[17]
  IC50: 0.26 µM (active)
[18]
  IC50: 1.42 µM (active)

## CN(C)CC[C@@H](c1ccc(Cl)cc1)c1ccccn1
[19]
  IC50: 17.7 µM (inactive)

## CCCc1ccc(S(=O)(=O)N2CCN(C(=O)/C=C/c3ccc(F)cc3)CC2)cc1
[20]
  IC50: 0.0241 µM (active)

## C[C@@H](O)C#Cc1ccc2c(c1)O[C@@H](CN(C)Cc1ccc(-c3ccccc3)cc1)[C@@H](C)CN([C@@H](C)CO)S2(=O)=O
[21]
  AC50: > 60 µM (inactive)
[22]; A549
  AC50: > 52 µM (inactive)
[22]; a549
  AC50: 49.4 µM (active)
[23]
  AC50: 8.84 µM (active)

## CS(=O)(=O)c1ccc(N2CCN(C(=O)c3ccc4c(c3)OCO4)CC2)cc1
[24]
  AC50: 15.1 µM (active)

## Cc1ccc(-c2cc3nc(C)cc(C)n3n2)cc1
[25]
  IC50: > 67.5 µM (inactive)
[26]
  EC50: > 67.5 µM (inactive)
[27]
  EC50: > 67.5 µM (inactive)
Cells [28]
  EC50: > 67.5 µM (inactive)

## O=C1OC(c2ccc3ccccc3c2O)(c2ccc3ccccc3c2O)c2ccccc21
[29]
  IC50: > 80 µM (inactive)
Vero
  CC50: > 40 µM (active)
Genome polyprotein
  IC50: 19 µM (active)
[30]
  IC50: 7.05 µM (active)
[31]
  IC50: 20.9 µM (active)
Protein Tat
  IC50: > 100 µM (active)
[32]
  CC50: > 40 µM (active)

## CCCCN(C)C(=O)c1ccc(Nc2nc(C(N)Cc3ccc(C(F)(F)F)cc3)cs2)nc1 (stereo unspecified)
[33]
  IC50: > 96.6 µM (inactive)

## COc1cc2sc3cc(NCC[C@@H]4CCCN4C)ccc3c(=O)c2cc1OC
HeLa
  AC50: 191 µM (active)
[34]
  AC50: 6.9 µM (active)
[35]
  AC50: 17.6 µM (active)
[36]
  IC50: 26.2 µM (inactive)
Cells [37]
  AC50: 35.5 µM (active)
Cells [38]
  AC50: 38 µM (active)
